Paper PMC9774238, “In Vitro Antifungal Activity of Chimeric Peptides Derived from Bovine Lactoferricin and Buforin II against Cryptococcus neoformans var. grubii” (Antibiotics, 2022)
≈ marks a conversion by molar mass, not a printed value. Like-named read-outs stand apart in the source and are kept apart here. Non-standard residues stand in square brackets, D forms with d. Residues, ends and D or L forms follow the SMILES beside them. No end group written: not given here. Ahx = NCCCCCC(=O)O

Columns and labels:
[1] = test system: C. neoformans var. grubii strains; format: cell-based, Cryptococcus neoformans var. grubii; conditions: 74 h
Experimental: (§1) The minimal fungicidal concentration (MFC) was evaluated after the yeast’s exposure to the chimeras (1.6 to 100 μg/mL), as described above. […] The MFC was defined as the lowest peptide concentration at which ≤1 colony was visible on the agar plate.

[2] = test system: C. neoformans 2807 clinical isolate; test: microbe, parasite or virus in culture; format: cell-based, Cryptococcus neoformans var. grubii; conditions: 72 h; for MICa (MIC of the chimeric peptide alone): 2807 clinical isolate
Experimental: (§2) The combined effect of FLC with the chimeric peptides was evaluated for the reference strain and one clinical isolate. The amounts of 50 µL of the chimeric peptide and 50 µL of antifungal (FLC) were added to the plates at final concentrations of: 2xMIC, MIC, 1/2xMIC, 1/4xMIC, 1/6xMIC, and 1/8xMIC. A yeast cell suspension was added at 0.5–2.5 × 10^3 cells/mL in 96-well plates. It was incubated for 72 h with shaking at 110 rpm and at 30 °C.
(§3) The effect of the combination of the two drugs was determined by calculating the fractional inhibitory concentration index (∑FIC), which was calculated as follows: ∑FIC = (MICcombined/MICalone) FLC + (MICcombined/MICalone) peptide.
(§4) FIC values ≤0.5 was considered as synergistic effect, 0.5 < FIC < 1 an additive effect, 1 < FIC < 4 indifference, and FIC ≥ 4 an antagonistic effect.

C. neoformans H99 = test: microbe, parasite or virus in culture; format: cell-based, Cryptococcus neoformans var. grubii; conditions: for MICa (MIC of the chimeric peptide alone): H99, 72 h
Experimental: as §2, §3, §4

[3] = test system: L929 murine fibroblast cells; format: cell-based, mouse; conditions: 2 h
Experimental: The cell line used for this approach was the mouse fibroblast L929. The cells were washed with saline solution, trypsinized, and incubated for 5 min at 37 °C with a 5% CO2 atmosphere. The fibroblast cell suspension was prepared at a concentration of 1 × 10^6 cells in 7 mL of RPMI medium supplemented with fetal bovine serum (the number of cells needed for one plate) and dispensed into 96-well plates. Then, 70 µL of cells was added per well and incubated overnight at 37 °C and 5% CO2. Dilutions of each peptide chimera (3.125–200 µg/mL) were formulated, and 50 µL of each were added to the plate in quadruplicate and incubated for 2 h at 37 °C and 5% CO2. Control wells consisted of untreated cell cultures. In addition, 10 µL of MTT was added to each of the wells, and the plate was incubated for 4 h at 37 °C with a 5% CO2 atmosphere. Following that, the total volume of each well was withdrawn, 100 µL of DMSO was added, and it was incubated for 40 min at 37 °C with 5% CO2.
Plates were read with an iMark™ microplate reader (Bio-rad, Hercules, CA, USA) measuring the absorbance at 595 nm. Wells of untreated fibroblast cells were considered to be the negative control.

[4] = test system: C. neoformans var. grubii strains; format: cell-based, Cryptococcus neoformans var. grubii; conditions: 72 h
Experimental: (§5) The in vitro susceptibility of chimeric, precursor peptides and FLC was evaluated by determining the minimal inhibitory concentration (MIC) on the basis of the broth microdilution method, according to document M27-A3 of the Clinical Laboratory Standards Institute (CLSI). It was diluted in RPMI-1640 medium (Sigma-Aldrich) at concentrations ranging from 1.6 to 100 μg/mL. The initial suspension (0.5 McFarland) was mixed into saline solution. Subsequently, a 1:50 dilution in saline solution and a 1:20 dilution in RPMI-1640 were tested (0.5–2.5 × 10^3 cells/mL). The negative control was the medium only without inoculum, and the positive control was the medium plus inoculum. The incubation time was 72 h at 30 °C at 110 rpm. The MIC values were determined by measuring the absorbance at 595 nm in a microplate reader and were defined as the lowest concentration of peptides capable of inhibiting growth equal to or higher than 50% in relation to the positive control. The MIC for fluconazole (FLC; 0.125–64 μg/mL; Pfizer, Brazil) was also determined according to M27-A3. The lowest concentration of the antifungal agent that was able to inhibit growth by 50% with respect to the positive control was considered the MIC.

[5] = test system: C. neoformans var. grubii H99; test: Fluorescent staining for yeast viability (LIVE/DEAD, FUN1 and calcofluor white); format: cell-based, Cryptococcus neoformans var. grubii; conditions: 72 h
Experimental: Since the antifungal activity of the two chimeras was similar, it was decided to evaluate cell viability in the reference strain using one of the two chimeras by means of confocal microscopy. For this reason, the C6 chimera was evaluated in the H99 strain by staining with FUN1 and calcofluor white.
A commercial LIVE/DEAD™ yeast viability kit (Invitrogen, US) was used to analyze yeast viability after treatment with one of the chimeric peptides and FLC for 72 h at concentrations of 3.125, 6.25, 12.5, and 25 μg/mL and 4 and 8 μg/mL, respectively. In the dead control, the yeasts were treated with 5% hypochlorite for 10 min. Untreated yeast cells were used as a live control. Yeast cells were suspended in phosphate buffered saline (PBS). FUN-1 cell stains (10 μM) and calcofluor white (25 μM) were added to the yeast cell suspensions. After incubation in the dark at 30 °C for 30 min, the stained yeast was analyzed under a fluorescence microscope (Olympus FV1000) using filters set to excitation at approximately 488, 532, and 405 nm at 60× magnification. Fungal cell viability was determined by means of fluorescence analysis in at least 10 fields. Staining and interpretation of fluorescence were performed according to the manufacturer’s instructions.

[6] = test system: mutants of C. neoformans var. grubii; test: MIC, mutants (summary statements); format: cell-based, Cryptococcus neoformans var. grubii; conditions: all mutants
Experimental: as §5

[7] = test system: C. neoformans var. grubii mutant CNAG_01580; test: MIC, broth microdilution (CLSI M27-A3); format: cell-based, Cryptococcus neoformans var. grubii; conditions: Cryptococcus neoformans, 72 h
Experimental: as §5

[8] = test system: C. neoformans var. grubii mutant CNAG_05150; test: MIC, broth microdilution (CLSI M27-A3); format: cell-based, Cryptococcus neoformans var. grubii; conditions: Cryptococcus neoformans, 72 h
Experimental: as §5

[9] = test system: C. neoformans var. grubii mutant CNAG_04804; test: MIC, broth microdilution (CLSI M27-A3); format: cell-based, Cryptococcus neoformans var. grubii; conditions: Cryptococcus neoformans, 72 h
Experimental: as §5

[10] = test system: C. neoformans var. grubii mutant CNAG_00730; test: MIC, broth microdilution (CLSI M27-A3); format: cell-based, Cryptococcus neoformans var. grubii; conditions: Cryptococcus neoformans, 72 h
Experimental: as §5

[11] = test system: C. neoformans var. grubii mutant CNAG_04693; test: MIC, broth microdilution (CLSI M27-A3); format: cell-based, Cryptococcus neoformans var. grubii; conditions: Cryptococcus neoformans, 72 h
Experimental: as §5

[12] = test system: C. neoformans var. grubii mutant CNAG_06925; test: MIC, broth microdilution (CLSI M27-A3); format: cell-based, Cryptococcus neoformans var. grubii; conditions: Cryptococcus neoformans, 72 h
Experimental: as §5

[13] = test system: C. neoformans var. grubii mutant CNAG_02915; test: MIC, broth microdilution (CLSI M27-A3); format: cell-based, Cryptococcus neoformans var. grubii; conditions: Cryptococcus neoformans, 72 h
Experimental: as §5

[14] = test system: C. neoformans var. grubii mutant CNAG_02050; test: MIC, broth microdilution (CLSI M27-A3); format: cell-based, Cryptococcus neoformans var. grubii; conditions: Cryptococcus neoformans, 72 h
Experimental: as §5

[15] = test system: C. neoformans var. grubii clinical isolate 2807; test: microbe, parasite or virus in culture; format: cell-based, Cryptococcus neoformans var. grubii
Experimental: as §5

[16] = test system: C. neoformans var. grubii clinical isolate 2643; test: microbe, parasite or virus in culture; format: cell-based, Cryptococcus neoformans var. grubii
Experimental: as §5

[17] = test system: C. neoformans var. grubii H99; test: microbe, parasite or virus in culture; format: cell-based, Cryptococcus neoformans var. grubii
Experimental: as §5

[18] = test system: C. neoformans var. grubii clinical isolate 3279; test: microbe, parasite or virus in culture; format: cell-based, Cryptococcus neoformans var. grubii
Experimental: as §5

[19] = test system: C. neoformans var. grubii clinical isolate 2807; format: cell-based, Cryptococcus neoformans var. grubii; conditions: var. grubii clinical isolate 2807, 74 h
Experimental: as §1

[20] = test system: C. neoformans var. grubii H99; format: cell-based, Cryptococcus neoformans var. grubii; conditions: var. grubii H99, 74 h
Experimental: as §1

[21] = test system: normal human T lymphocytes, fibroblasts, and endothelial cells; conditions: LfcinB at 200 μg/mL; cited from earlier work
Text: One of the main concerns about the use of antimicrobial peptides in systemic treatments is their toxicity.

[22] = var. grubii clinical isolate 2807, 72 h

In the case of `CC(C)C[C@H](NC(=O)[C@H](CC(C)C)NC(=O)[C@H](CCCCN)NC(=O)[C@H](CCCCN)NC(=O)[C@H](CC(C)C)NC(=O)[C@H](CC(C)C)NC(=O)[C@H](CCCCN)NC(=O)CCCCCNC(=O)[C@H](CCCNC(=N)N)NC(=O)[C@H](Cc1c[nH]c2ccccc12)NC(=O)[C@H](CCC(N)=O)NC(=O)[C@H](Cc1c[nH]c2ccccc12)NC(=O)[C@H](CCCNC(=N)N)NC(=O)[C@@H](N)CCCNC(=N)N)C(=O)N[C@@H](CCCCN)C(N)=O` [Chimera C5] (H-RRWQWR[Ahx]KLLKKLLK-NH2), the MFC [1] is reported as 12.5 µg/mL (≈ 6.05 µM), the “MICa (MIC of the chimeric peptide alone)” value [2] is reported as 12.5 µg/mL and the “MICa (MIC of the chimeric peptide alone)” value (C. neoformans H99) is reported as 12.5 µg/mL. The “IC50 (fibroblast viability)” value [3] was 93.35 µg/mL (≈ 45.2 µM) and the MIC [4] was 12.5 µg/mL (≈ 6.05 µM).

With `CC(C)C[C@H](NC(=O)[C@H](CC(C)C)NC(=O)[C@H](CCCNC(=N)N)NC(=O)[C@H](CCCNC(=N)N)NC(=O)[C@H](CC(C)C)NC(=O)[C@H](CC(C)C)NC(=O)[C@H](CCCNC(=N)N)NC(=O)CCCCCNC(=O)[C@H](CCCCN)NC(=O)[C@H](Cc1c[nH]c2ccccc12)NC(=O)[C@H](CCC(N)=O)NC(=O)[C@H](Cc1c[nH]c2ccccc12)NC(=O)[C@H](CCCCN)NC(=O)[C@@H](N)CCCCN)C(=O)N[C@@H](CCCNC(=N)N)C(N)=O` [Chimera C6] (H-KKWQWK[Ahx]RLLRRLLR-NH2) the MFC [1] was 6.25 µg/mL (≈ 2.99 µM), the “MICa (MIC of the chimeric peptide alone)” value [2] was 6.25 µg/mL and the “MICa (MIC of the chimeric peptide alone)” value (C. neoformans H99) was 6.25 µg/mL. For the same compound, the “IC50 (fibroblast viability)” value [3] was 67.44 µg/mL (≈ 32.2 µM) and the MIC [4] was 6.25 µg/mL (≈ 2.99 µM).

In the case of `OC(Cn1cncn1)(Cn1cncn1)c1ccc(F)cc1F` [FLC, fluconazole], the “cell population versus live control” value ([5]; fluconazole 4 μg/mL (MIC)) is reported as “a decrease in the cell population was observed”, the cell decrease ([5]; fluconazole 8 μg/mL) is reported as > 80% and the MIC ([2]; Cryptococcus neoformans, clinical isolate 2807, checkerboard, 30 °C, 110 rpm, read-out: MICb (MIC of FLC alone)) is reported as 16 µg/mL. For the same compound, the MIC (C. neoformans H99; Cryptococcus neoformans, H99, checkerboard, 72 h, 30 °C, 110 rpm, read-out: MICb (MIC of FLC alone)) was 4 µg/mL, the “susceptibility of the strains to FLC” value [6] was “sensitive” and the MIC [7] was 0.25 µg/mL (≈ 0.816 µM). For the same compound, the MIC [8] was 2 µg/mL (≈ 6.53 µM), the MIC [9] was 1 µg/mL (≈ 3.27 µM) and the MIC [10] was 0.75 µg/mL (≈ 2.45 µM). It also gave an MIC [11] of 1 µg/mL (≈ 3.27 µM), an MIC [12] of 1 µg/mL (≈ 3.27 µM) and an MIC [13] of 1.5 µg/mL (≈ 4.9 µM). It also gave an MIC [14] of 1 µg/mL (≈ 3.27 µM), an MIC ([15]; Cryptococcus neoformans, clinical isolate 2807, broth microdilution RPMI-1640, 72 h, 30 °C, ≥50% inhibition, read-out: MIC) of 16 µg/mL and an MIC ([16]; Cryptococcus neoformans, clinical isolate 2643, broth microdilution RPMI-1640, 72 h, 30 °C, ≥50% inhibition, read-out: MIC) of 8 µg/mL. For the same compound, the MIC ([17]; Cryptococcus neoformans, H99 reference strain, broth microdilution RPMI-1640, 72 h, 30 °C, ≥50% inhibition (A595), read-out: MIC) was 4 µg/mL, the “susceptibility of the strain to FLC” value ([17]; H99 strain) was “sensitive” and the MIC ([18]; Cryptococcus neoformans, clinical isolate 3279, broth microdilution RPMI-1640, 72 h, 30 °C, ≥50% inhibition, read-out: MIC) was 16 µg/mL.

Compound KKWQWK [[K]-LfcinB (20–25)] has an MFC [19] of 111 µM, an MFC [20] of 111 µM and an MIC [15, 22] of 111 µM. For the same compound, the MIC ([17]; var. grubii H99, 72 h) was 111 µM.

For KLLKKLLK [[K]-BFII (32–35)Pal], the MFC [19] was 114 µM, the MFC [20] was 114 µM and the MIC [15, 22] was 114 µM. It also gave an MIC ([17]; var. grubii H99, 72 h) of 114 µM.

For “LfcinB: bovine lactoferricin, antimicrobial peptide (FKCRRWQWRMKKLGAPSITCVRRAF; ends and bridges not checked; cysteine pairing not given here; UniProt P24627 36-60, looked up)”, the “toxicity for normal human cell cultures” value [21] is given as “not toxic”.

In the case of RLLRRLLR [BFII (32–35)Pal], the MFC [19] is reported as > 46 µM, the MFC [20] is reported as > 46 µM and the MIC [15, 22] is reported as > 46 µM. For the same compound, the MIC ([16]; var. grubii clinical isolate 2643, 72 h) was > 46 µM, the MIC ([17]; var. grubii H99, 72 h) was > 46 µM and the MIC ([18]; var. grubii clinical isolate 3279, 72 h) was > 46 µM.
